The record followed here is patent publication US6900223B2, “Dihydrodipyrazolopyridinone inhibitors of B7-1” (Wyeth, priority 2002, dated 2005).

pIC50: −log10 of the molar value.

The assay addresses T1, B7-1/CD28 binding (Homo sapiens, UniProt P33681).
T1 sequence (P33681 35-242 limits assumed): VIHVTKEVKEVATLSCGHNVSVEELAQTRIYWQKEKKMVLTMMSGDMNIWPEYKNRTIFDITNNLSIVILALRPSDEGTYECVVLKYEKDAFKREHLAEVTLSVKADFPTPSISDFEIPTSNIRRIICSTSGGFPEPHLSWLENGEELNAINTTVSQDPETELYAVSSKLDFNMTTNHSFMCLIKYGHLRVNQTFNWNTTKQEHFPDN
The experiment in a line: CD28/B7-1 ELISA (B7-1/CD28 binding inhibition). The note with it: CD28-Fc coated wells, B7-1-Fc-biotin/streptavidin-alkaline phosphatase detection complex, 1% DMSO. On the procedure: Evaluation of B7-1/CD28 Binding Inhibition for Test Compounds
Wells are coated with 300 ng CD28-Fc in carbonate buffer (pH 9.4) overnight at 4° C., blocked with 1% bovine serum albumin in tris-buffered saline (TBS) for 1 h at 22° C. and washed 3 times in TBS prior to assay. The detection complex is formed as follows: B7-1-Fc-biotin, prepared using NHS-LC-biotin (Pierce #21335) according to the manufacturers instructions (4.1 moles biotin/mole Fc), is added at 0.8 ug/ml to streptavidin-alkaline phosphatase (Caltag Sa1008 at 1:1000 in TBS. Gradient dilutions of test compound in dimethylsulfoxide (1% final) are added to this complex and incubated 30 min. at 22° C. Detection complex (+/−inhibitors) is then added to the CD28 coated wells for 25 min. at 22° C., washed 5 times with TBS, developed with the calorimetric substrate pNPP (Pierce #34045) in diethanolamine/MgCl2 buffer (pH 9.5) and read at 405 nm. The inhibition constant (IC50) is calculated by subtracting background binding and comparing to uninhibited (DMSO alone) controls. The inhibition constant represents the concentration of test compound required to achieve 50% inhibition.
`Cn1ncc2c3[nH]n(-c4cccc(F)c4)c(=O)c3c(-c3cncc(Br)c3)nc21` [Example 4, 4-(5-Bromo-3-pyridinyl)-2-(3-fluorophenyl)-6-methyl-1,6-dihydrodipyrazalo[3,4-b:3,4-d]pyridin-3(2H)-one]: the pIC50 (as a rule, the negative decadic logarithm of the IC50, by convention in mol/L) was 7.70. `Cn1ncc2c3[nH]n(-c4ccc(Cl)cc4)c(=O)c3c(-c3ccccc3)nc21` [Example 6] had a pIC50 of 5.74.

The molecule `O=c1c2c(-c3cccc(C(F)(F)F)c3)nc3c(cnn3-c3ccccc3)c2[nH]n1-c1cccc(F)c1` [Example 7] had a negative-log IC50 (pIC50) of 6.12. Then `Cn1ncc2c3[nH]n(-c4ccc(F)cc4)c(=O)c3c(-c3cncc(Br)c3)nc21` [Example 8], with 6.70; and `Cn1ncc2c3[nH]n(-c4ccccn4)c(=O)c3c(-c3cncc(Br)c3)nc21` [Example 9], with 6.40; and `Cc1cccc(-c2nc3c(cnn3C)c3[nH]n(-c4ccccn4)c(=O)c23)c1` [Example 10], with 6.82. `Cc1cc(-n2[nH]c3c(c(-c4cccc(Br)c4)nc4c3cnn4C)c2=O)cc(C(F)(F)F)c1` [Example 12] had a pIC50 of 6.72. The molecule `Cn1ncc2c3[nH]n(-c4ccccn4)c(=O)c3c(-c3cccc(Br)c3)nc21` [Example 13] showed a pIC50 of 7.15. Turning to `Cn1ncc2c3[nH]n(-c4ccc(I)cc4)c(=O)c3c(-c3cccc(C(F)(F)F)c3)nc21` [Example 16], the pIC50 was 7.30. Then `Cc1cc(C)cc(-n2[nH]c3c(c(-c4cccc(Br)c4)nc4c3cnn4C)c2=O)c1` [Example 17], with 7.24; and `Cn1ncc2c3[nH]n(-c4ccc([N+](=O)[O-])cc4)c(=O)c3c(-c3cccc(Br)c3)nc21` [Example 18], with 7.92. Then `Cc1cccc(-c2nc3c(cnn3C)c3[nH]n(-c4cc(C)cc(C)c4)c(=O)c23)c1` [Example 19], with 6.00; and `Cc1cc(C)cc(-n2[nH]c3c(c(-c4cccc(C(F)(F)F)c4)nc4c3cnn4C)c2=O)c1` [Example 20], with 7.18; and `Cn1ncc2c3[nH]n(-c4cccc(C(=O)O)c4)c(=O)c3c(-c3cccc(C(F)(F)F)c3)nc21` [Example 21], with 7.32. Consider `COC(=O)c1cccc(-n2[nH]c3c(c(-c4cccc(C(F)(F)F)c4)nc4c3cnn4C)c2=O)c1` [Example 22], for which the pIC50 is 8.10. `CCOc1ccc(-n2[nH]c3c(c(-c4cccc(C(F)(F)F)c4)nc4c3cnn4C)c2=O)nn1` [Example 23] showed a pIC50 of 6.54. Then `Cn1ncc2c3[nH]n(-c4ccc(=O)[nH]n4)c(=O)c3c(-c3cccc(C(F)(F)F)c3)nc21` [Example 24], with 7.14; and `Cn1ncc2c3[nH]n(-c4ccc(Cl)c(C(=O)O)c4)c(=O)c3c(-c3cccc(C(F)(F)F)c3)nc21` [Example 25], with 8.15. On to `COC(=O)c1cc(-n2[nH]c3c(c(-c4cccc(C(F)(F)F)c4)nc4c3cnn4C)c2=O)ccc1Cl` [Example 26], for which the pIC50 was 6.92. As for `CCOC(=O)c1cccc(-n2[nH]c3c(c(-c4cccc(C(F)(F)F)c4)nc4c3cnn4C)c2=O)c1` [Example 28], the pIC50 is 6.77. `COC(=O)c1ccc(-n2[nH]c3c(c(-c4cccc(C(F)(F)F)c4)nc4c3cnn4C)c2=O)cc1Cl` [Example 29] gave a pIC50 of 7.39. The value for `Cn1ncc2c3[nH]n(-c4ccc(C(=O)O)c(Cl)c4)c(=O)c3c(-c3cccc(C(F)(F)F)c3)nc21` [Example 30] was 7.80. Regarding `COC(=O)c1ccc(-n2[nH]c3c(c(-c4cccc(Br)c4)nc4c3cnn4C)c2=O)cc1Cl` [Example 31], the pIC50 was 8.05. `Cn1ncc2c3[nH]n(-c4ccc(C(=O)O)c(Cl)c4)c(=O)c3c(-c3cccc(Br)c3)nc21` [Example 32] showed a pIC50 of 8.05.

`Cn1ncc2c3[nH]n(-c4ccc(C(=O)O)cc4)c(=O)c3c(-c3cccc(C(F)(F)F)c3)nc21` [Example 33] gave a pIC50 of 6.72.

On to `COC(=O)c1ccc(-n2[nH]c3c(c(-c4cccc(C(F)(F)F)c4)nc4c3cnn4C)c2=O)cc1` [Example 34], for which the pIC50 is 7.51. On to `COC(=O)c1cc(-n2[nH]c3c(c(-c4cccc(C(F)(F)F)c4)nc4c3cnn4C)c2=O)ccc1F` [Example 35], for which the pIC50 is 7.01. In turn, `Cn1ncc2c3[nH]n(-c4ccc(F)c(C(=O)O)c4)c(=O)c3c(-c3cccc(C(F)(F)F)c3)nc21` [Example 36] had a pIC50 of 7.15. Take `COC(=O)c1ccc(-n2[nH]c3c(c(-c4cccc(C(F)(F)F)c4)nc4c3cnn4C)c2=O)cc1F` [Example 37]: the pIC50 is 7.92. Molecule `Cn1ncc2c3[nH]n(-c4ccc(C(=O)O)c(F)c4)c(=O)c3c(-c3cccc(C(F)(F)F)c3)nc21` [Example 38] gave a pIC50 of 6.68. The molecule `Cn1ncc2c3[nH]n(-c4ccc(F)cc4)c(=O)c3c(-c3cccc(C(F)(F)F)c3)nc21` [Example 39] gave a pIC50 of 7.30. For `Cn1ncc2c3[nH]n(-c4ccc([N+](=O)[O-])cc4)c(=O)c3c(-c3cccc(C(F)(F)F)c3)nc21` [Example 40], the pIC50 was 7.00. With `Cn1ncc2c3[nH]n(-c4ccccc4F)c(=O)c3c(-c3cccc(C(F)(F)F)c3)nc21` [Example 41], the pIC50 is 6.40. The value for `Cn1ncc2c3[nH]n(-c4ccc(C(C)(C)C)cc4)c(=O)c3c(-c3cccc(C(F)(F)F)c3)nc21` [Example 42] was 6.05; that for `Cn1ncc2c3[nH]n(-c4cccc(F)c4)c(=O)c3c(-c3cccc(C(F)(F)F)c3)nc21` [Example 43] was 7.70; that for `Cn1ncc2c3[nH]n(-c4ccc(F)cc4F)c(=O)c3c(-c3cccc(C(F)(F)F)c3)nc21` [Example 44] was 6.00.

`Cn1ncc2c3[nH]n(-c4nccc(C(F)(F)F)n4)c(=O)c3c(-c3cccc(C(F)(F)F)c3)nc21` [Example 45] had a pIC50 of 5.92. With `Cn1ncc2c3[nH]n(-c4ccc(F)cc4)c(=O)c3c(-c3cccc([N+](=O)[O-])c3)nc21` [Example 46], the pIC50 was 7.30.

Regarding `Cn1ncc2c3[nH]n(-c4ccc(F)cc4)c(=O)c3c(-c3cccc(N)c3)nc21` [Example 47], the pIC50 was 6.40. Then `Cn1ncc2c3[nH]n(-c4ccc(N)cc4)c(=O)c3c(-c3cccc(C(F)(F)F)c3)nc21` [Example 48], with 7.30; and `Cn1ncc2c3[nH]n(-c4cccc(F)c4)c(=O)c3c(-c3cccc([N+](=O)[O-])c3)nc21` [Example 50], with 8.40. Then `CCOC(=O)c1scc(C)c1-n1[nH]c2c(c(-c3cccc(C(F)(F)F)c3)nc3c2cnn3C)c1=O` [Example 51], with 5.68. `Cc1csc(C(=O)O)c1-n1[nH]c2c(c(-c3cccc(C(F)(F)F)c3)nc3c2cnn3C)c1=O` [Example 52] gave a pIC50 of 5.77. As for `Cn1ncc2c3[nH]n(-c4cccc(F)c4)c(=O)c3c(-c3cccc(C#N)c3)nc21` [Example 53], the pIC50 is 7.52. In the case of `Cn1ncc2c3[nH]n(-c4cccc(F)c4)c(=O)c3c(-c3cccc(C(N)=O)c3)nc21` [Example 54], the pIC50 is 5.82.

`Cn1ncc2c3[nH]n(-c4cccc(F)c4)c(=O)c3c(-c3cccc(S(C)(=O)=O)c3)nc21` [Example 55]: the negative-log IC50 (pIC50) is 5.72. With `Cn1ncc2c3[nH]n(-c4cccc(F)c4)c(=O)c3c(-c3cccc([S+](C)[O-])c3)nc21` (stereo not shown) [Example 56], the pIC50 is 6.48. The value for `Cn1ncc2c3[nH]n(-c4ccc(-c5ccccc5)cc4)c(=O)c3c(-c3cccc(C(F)(F)F)c3)nc21` [Example 57] was 7.41. Then `Cn1ncc2c3[nH]n(-c4ccc(OCc5ccccc5)cc4)c(=O)c3c(-c3cccc(C(F)(F)F)c3)nc21` [Example 58], with 7.60; and `Cn1ncc2c3[nH]n(-c4cccc(OCc5ccccc5)c4)c(=O)c3c(-c3cccc(C(F)(F)F)c3)nc21` [Example 59], with 7.70; and `Cn1ncc2c3[nH]n(-c4cccc(F)c4)c(=O)c3c(-c3cccc(C(=O)O)c3)nc21` [Example 60], with 7.15. Then `O=c1c2c(-c3cccc(C(F)(F)F)c3)nc3c(cnn3Cc3ccccc3)c2[nH]n1-c1ccc(F)cc1` [Example 64], with 7.15; and `O=c1c2c(-c3cccc(C(F)(F)F)c3)nc3[nH]ncc3c2[nH]n1-c1ccc(F)cc1` [Example 65], with 7.30; and `O=c1c2c(-c3cccc(C(F)(F)F)c3)nc3c(cnn3CCO)c2[nH]n1-c1ccc(F)cc1` [Example 66], with 6.10. The molecule `CCn1ncc2c3[nH]n(-c4ccc(F)cc4)c(=O)c3c(-c3cccc(C(F)(F)F)c3)nc21` [Example 67] had a pIC50 of 6.11. Then `CCCn1ncc2c3[nH]n(-c4ccc(F)cc4)c(=O)c3c(-c3cccc(C(F)(F)F)c3)nc21` [Example 68], with 7.05; and `Cn1ncc2c3[nH]n(-c4cccc(F)c4)c(=O)c3c(-c3cc(Cl)cc(Cl)c3)nc21` [Example 73, 4-(3,5-Dichlorophenyl)-2-(3-fluorophenyl)-6-methyl-1,6-dihydrodypyrazolo[3,4-b:3′,4′-d]pyridin-3(2H)-one], with 7.40. `Cn1ncc2c3[nH]n(-c4cccc(F)c4)c(=O)c3c(-c3ccsc3)nc21` [Example 74] gave a negative-log IC50 (pIC50) of 6.98.
